Results: PMC10796436, “Peptidyl nitroalkene inhibitors of main protease rationalized by computational and crystallographic investigations as antivirals against SARS-CoV-2” (Communications Chemistry, 2024)
“And” between values parts separate entries of the source, which are not always exact repeats. Equal entries are not always repeated.

Experiments:
M^pro = M^pro (Severe acute respiratory syndrome coronavirus 2, UniProt P0DTD1); test: biochemical; format: binding
bovine trypsin = molecular target: T1, bovine trypsin (Bos taurus, UniProt P00760); format: biochemical; settings: 20 μM
T1 construct: purchased Sigma-Aldrich
T1 sequence (P00760 24-246): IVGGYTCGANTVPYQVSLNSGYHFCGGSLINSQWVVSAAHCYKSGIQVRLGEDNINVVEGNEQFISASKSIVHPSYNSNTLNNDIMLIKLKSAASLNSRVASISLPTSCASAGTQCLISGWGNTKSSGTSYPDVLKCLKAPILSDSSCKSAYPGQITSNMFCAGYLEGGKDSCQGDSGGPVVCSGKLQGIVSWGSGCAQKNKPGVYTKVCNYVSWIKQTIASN

[1] = molecular target: Zika Virus NS2B/NS3 (bZiPro) (Zika virus, UniProt A0A024B7W1); test: Zika virus protease inhibition, fluorometric assay; format: biochemical; settings: 20 μM
SARS-CoV-2 M^pro [2] = molecular target: T2, SARS-CoV-2 M^pro (Severe acute respiratory syndrome coronavirus 2, UniProt P0DTD1); test: biochemical; settings: M^pro from pMal-M^pro vector
SARS-CoV-2 M^pro [3] = molecular target: T2, SARS-CoV-2 M^pro; test: Mpro FRET inhibition, continuous fluorometric assay (Fluorolog-3), enzyme from pET21-M^pro vector; format: biochemical; settings: read-out: Ki (μM)^b
[4] = molecular target: human matriptase (MT-SP1) (Homo sapiens, UniProt Q9Y5Y6); test: Matriptase inhibition, fluorometric assay; format: biochemical; settings: 20 μM
SARS-CoV-2 = test: microbe, parasite or virus in culture; format: cell-based; settings: for virus titer Mean (%): mean of Exp.1-3
cathepsin L (CatL) = molecular target: T3, cathepsin L (CatL) (Homo sapiens, UniProt P07711); test: Cathepsin L inhibition, fluorometric assay; format: biochemical; settings: read-out: Ki CatL
T3 construct: purchased Calbiochem (Merck Millipore)
T3 sequence (P07711 114-288 limits assumed): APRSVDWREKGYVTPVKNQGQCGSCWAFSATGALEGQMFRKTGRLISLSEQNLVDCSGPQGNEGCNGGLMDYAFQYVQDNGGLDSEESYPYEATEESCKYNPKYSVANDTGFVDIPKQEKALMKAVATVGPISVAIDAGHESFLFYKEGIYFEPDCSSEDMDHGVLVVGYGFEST
T3 sequence (P07711 292-333 limits assumed): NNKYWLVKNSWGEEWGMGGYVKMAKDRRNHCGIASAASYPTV

Zika Virus NS2B/NS3 (bZiPro), sequence (A0A024B7W1 1425-1464): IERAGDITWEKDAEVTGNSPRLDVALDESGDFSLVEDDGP
Zika Virus NS2B/NS3 (bZiPro), sequence (A0A024B7W1 1503-1680): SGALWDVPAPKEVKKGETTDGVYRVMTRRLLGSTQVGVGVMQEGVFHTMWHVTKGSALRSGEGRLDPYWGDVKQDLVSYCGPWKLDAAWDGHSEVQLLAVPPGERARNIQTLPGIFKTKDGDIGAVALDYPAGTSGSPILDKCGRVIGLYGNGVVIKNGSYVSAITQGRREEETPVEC
human matriptase (MT-SP1), sequence (Q9Y5Y6 615-855 limits assumed, other chains not shown): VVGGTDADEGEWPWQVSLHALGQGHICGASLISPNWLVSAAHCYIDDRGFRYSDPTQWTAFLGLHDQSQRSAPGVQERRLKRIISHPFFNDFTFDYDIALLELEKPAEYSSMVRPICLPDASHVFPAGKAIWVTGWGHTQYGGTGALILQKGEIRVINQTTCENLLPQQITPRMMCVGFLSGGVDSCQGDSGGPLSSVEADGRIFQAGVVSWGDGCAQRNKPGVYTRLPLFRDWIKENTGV

COc1cccc2[nH]c(C(=O)N[C@@H](CC(C)C)C(=O)N[C@H](/C=C/[N+](=O)[O-])C[C@@H]3CCNC3=O)cc12 [FGA146]
Tm of M^pro (M^pro): 45.0 ± 0.2 °C and 42.8 ± 0.1 °C | DTm (°C) (M^pro; 25 mM): -4.2 °C | Fraction unfolded (M^pro; 25 mM, 21.5 °C): -0.01003 | Fraction unfolded (M^pro; 25 mM, 22 °C): -0.02886 | Fraction unfolded (M^pro; 25 mM, 22.5 °C): -0.03599 | Fraction unfolded (M^pro; 25 mM, 23 °C): -0.01149 | Fraction unfolded (M^pro; 25 mM, 23.5 °C): 0.01389 | Fraction unfolded (M^pro; 25 mM, 24 °C): 0.08488 | Fraction unfolded (M^pro; 25 mM, 24.5 °C): 0.03781 | Fraction unfolded (M^pro; 25 mM, 25 °C): -0.07553 | Fraction unfolded (M^pro; 25 mM, 25.5 °C): 0.01064 | Fraction unfolded (M^pro; 25 mM, 26 °C): 0.08908 | Fraction unfolded (M^pro; 25 mM, 26.5 °C): 0.04267 | Fraction unfolded (M^pro; 25 mM, 27 °C): -0.01602 | Fraction unfolded (M^pro; 25 mM, 27.5 °C): 0.0059 | Fraction unfolded (M^pro; 25 mM, 28 °C): -0.0719 | Fraction unfolded (M^pro; 25 mM, 28.5 °C): 0.01153 | Fraction unfolded (M^pro; 25 mM, 29 °C): -0.09309 | Fraction unfolded (M^pro; 25 mM, 29.5 °C): -0.02786 | Fraction unfolded (M^pro; 25 mM, 30 °C): -0.01911 | Fraction unfolded (M^pro; 25 mM, 30.5 °C): 0.07168 | Fraction unfolded (M^pro; 25 mM, 31 °C): 0.0139 | Fraction unfolded (M^pro; 25 mM, 32 °C): -0.02402 | Fraction unfolded (M^pro; 25 mM, 32.5 °C): 0.02054 | Fraction unfolded (M^pro; 25 mM, 66.5 °C): 0.9674 | Fraction unfolded (M^pro; 25 mM, 67 °C): 1.009 | Fraction unfolded (M^pro; 25 mM, 67.5 °C): 1.012 | Fraction unfolded (M^pro; 25 mM, 68 °C): 1.038 | Fraction unfolded (M^pro; 25 mM, 68.5 °C): 1.026 | Fraction unfolded (M^pro; 25 mM, 69 °C): 1.004 | Fraction unfolded (M^pro; 25 mM, 69.5 °C): 1.031 | Fraction unfolded (M^pro; 25 mM, 70 °C): 1.005 | Fraction unfolded (M^pro; 25 mM, 70.5 °C): 0.9826 | Fraction unfolded (M^pro; 25 mM, 71 °C): 1.014 | Fraction unfolded (M^pro; 25 mM, 71.5 °C): 1.05 | Fraction unfolded (M^pro; 25 mM, 72 °C): 1.03 | Fraction unfolded (M^pro; 25 mM, 72.5 °C): 1.006 | Fraction unfolded (M^pro; 25 mM, 73 °C): 1.029 | Fraction unfolded (M^pro; 25 mM, 73.5 °C): 0.9779 | Fraction unfolded (M^pro; 25 mM, 74 °C): 1.013 | Fraction unfolded (M^pro; 25 mM, 74.5 °C): 1.064 | Fraction unfolded (M^pro; 25 mM, 75 °C): 1.029 | Fraction unfolded (M^pro; 25 mM, 75.5 °C): 1.031 | Fraction unfolded (M^pro; 25 mM, 76 °C): 1.031 | Fraction unfolded (M^pro; 25 mM, 76.5 °C): 0.9806 | Fraction unfolded (M^pro; 25 mM, 77 °C): 1.015 | Fraction unfolded (M^pro; 25 mM, 77.5 °C): 1.011 | Fraction unfolded (M^pro; 25 mM, 78 °C): 1.0092 | Fraction unfolded (M^pro; 25 mM, 78.5 °C): 1.012 | Fraction unfolded (M^pro; 25 mM, 79 °C): 1.059 | Fraction unfolded (M^pro; 25 mM, 79.5 °C): 0.9461 | Fraction unfolded (M^pro; 25 mM, 80 °C): 1.0063 | DTm (°C) (M^pro; 100 mM): -6.4 °C | Fraction unfolded (M^pro; 100 mM, 21.5 °C): -0.0719 | Fraction unfolded (M^pro; 100 mM, 22 °C): 0.01153 | Fraction unfolded (M^pro; 100 mM, 22.5 °C): -0.09309 | Fraction unfolded (M^pro; 100 mM, 23 °C): -0.02786 | Fraction unfolded (M^pro; 100 mM, 23.5 °C): -0.01911 | Fraction unfolded (M^pro; 100 mM, 24 °C): 0.07168 | Fraction unfolded (M^pro; 100 mM, 24.5 °C): 0.0139 | Fraction unfolded (M^pro; 100 mM, 25 °C): 0.01178 | Fraction unfolded (M^pro; 100 mM, 25.5 °C): -0.02402 | Fraction unfolded (M^pro; 100 mM, 26 °C): 0.02054 | Fraction unfolded (M^pro; 100 mM, 26.5 °C): 0.0786 | Fraction unfolded (M^pro; 100 mM, 27 °C): -0.05017 | Fraction unfolded (M^pro; 100 mM, 27.5 °C): -0.00904 | Fraction unfolded (M^pro; 100 mM, 28 °C): -0.01003 | Fraction unfolded (M^pro; 100 mM, 28.5 °C): -0.02886 | Fraction unfolded (M^pro; 100 mM, 29 °C): -0.03599 | Fraction unfolded (M^pro; 100 mM, 29.5 °C): -0.01149 | Fraction unfolded (M^pro; 100 mM, 30 °C): 0.01389 | Fraction unfolded (M^pro; 100 mM, 30.5 °C): 0.08488 | Fraction unfolded (M^pro; 100 mM, 31 °C): 0.03781 | Fraction unfolded (M^pro; 100 mM, 32 °C): 0.01064 | Fraction unfolded (M^pro; 100 mM, 32.5 °C): 0.08908 | Fraction unfolded (M^pro; 100 mM, 66.5 °C): 1.038 | Fraction unfolded (M^pro; 100 mM, 67 °C): 1.026 | Fraction unfolded (M^pro; 100 mM, 67.5 °C): 1.004 | Fraction unfolded (M^pro; 100 mM, 68 °C): 1.031 | Fraction unfolded (M^pro; 100 mM, 68.5 °C): 1.005 | Fraction unfolded (M^pro; 100 mM, 69 °C): 0.9826 | Fraction unfolded (M^pro; 100 mM, 69.5 °C): 1.014 | Fraction unfolded (M^pro; 100 mM, 70 °C): 1.04 | Fraction unfolded (M^pro; 100 mM, 70.5 °C): 0.9664 | Fraction unfolded (M^pro; 100 mM, 71 °C): 0.9851 | Fraction unfolded (M^pro; 100 mM, 71.5 °C): 0.9877 | Fraction unfolded (M^pro; 100 mM, 72 °C): 0.9881 | Fraction unfolded (M^pro; 100 mM, 72.5 °C): 1.095 | Fraction unfolded (M^pro; 100 mM, 73 °C): 0.9972 | Fraction unfolded (M^pro; 100 mM, 73.5 °C): 1.057 | Fraction unfolded (M^pro; 100 mM, 74 °C): 0.8905 | Fraction unfolded (M^pro; 100 mM, 74.5 °C): 1.0309 | Fraction unfolded (M^pro; 100 mM, 75 °C): 0.9492 | Fraction unfolded (M^pro; 100 mM, 75.5 °C): 0.9161 | Fraction unfolded (M^pro; 100 mM, 76 °C): 1.007 | Fraction unfolded (M^pro; 100 mM, 76.5 °C): 1.02 | Fraction unfolded (M^pro; 100 mM, 77 °C): 1.017 | Fraction unfolded (M^pro; 100 mM, 77.5 °C): 1.029 | Fraction unfolded (M^pro; 100 mM, 78 °C): 1.021 | Fraction unfolded (M^pro; 100 mM, 78.5 °C): 1.059 | Fraction unfolded (M^pro; 100 mM, 79 °C): 0.9805 | Fraction unfolded (M^pro; 100 mM, 79.5 °C): 0.9855 | Fraction unfolded (M^pro; 100 mM, 80 °C): 1.001 | relative activity compared to the DMSO control (bovine trypsin): 112.5±16.9% | bZiPro [1]: n.i. (no inhibition (<10%) was observed at a concentration of 20 μM) | Ki (SARS-CoV-2 M^pro [2]): 2.19 ± 0.18 µM | Ki (SARS-CoV-2 M^pro [3]): 0.96 ± 0.06 µM | MT-SP1 [4]: n.i. (no inhibition (<10%) was observed at a concentration of 20 μM) | EC50 (SARS-CoV-2; Huh-7-ACE2, 24h p.t., […]): 900 nM | virus titer Mean (%) (SARS-CoV-2; conc 0.1): 133.333% | virus titer Mean (%) (SARS-CoV-2; conc 0.5): 86.6667% | virus titer (%) of conc 0 (SARS-CoV-2; conc 0.5, single experiments): 100% and 60% | virus titer (pfu/ml) (SARS-CoV-2; conc 0.5, single experiments): 1000000 pfu/ml and 1200000 pfu/ml | virus titer Mean (%) (SARS-CoV-2; conc 1): 22.5% | virus titer Mean (%) (SARS-CoV-2; conc 5): 0.1667% | virus titer (%) of conc 0 (SARS-CoV-2; conc 5, single experiments): 0.4% and 0.04% and 0.06% | virus titer Mean (%) (SARS-CoV-2; conc 10): 0.1023% | virus titer (%) of conc 0 (SARS-CoV-2; conc 10, single experiments): 0.12% and 0.18% and 0.007% | virus titer Mean (%) (SARS-CoV-2; conc 50): 0.02533% | virus titer (%) of conc 0 (SARS-CoV-2; conc 50, single experiments): 0.06% and 0.014% and 0.002% | virus titer Mean (%) (SARS-CoV-2; conc 100): 0.02033% | virus titer (%) of conc 0 (SARS-CoV-2; conc 100, single experiments): 0.04% and 0.018% and 0.003% | Ki (cathepsin L (CatL)): 868 ± 60 nM
